Results from patent US11691974B2, “3,9-diazaspiro[5,5]undecane compound as FLT3 and AXL inhibitors” (MEDSHINE DISCOVERY INC., priority 2018, dated 2023).

Legend:
FLT3(ITD, F691L) = target: T1, FLT3(ITD, F691L) (Homo sapiens, UniProt P36888, F691L, form not given); experiment: KINOMEscan Kd determination, FLT3 mutant; assay type: binding; conditions: ratio of Kd versus compound B
T1 sequence (P36888 1-993 F691L): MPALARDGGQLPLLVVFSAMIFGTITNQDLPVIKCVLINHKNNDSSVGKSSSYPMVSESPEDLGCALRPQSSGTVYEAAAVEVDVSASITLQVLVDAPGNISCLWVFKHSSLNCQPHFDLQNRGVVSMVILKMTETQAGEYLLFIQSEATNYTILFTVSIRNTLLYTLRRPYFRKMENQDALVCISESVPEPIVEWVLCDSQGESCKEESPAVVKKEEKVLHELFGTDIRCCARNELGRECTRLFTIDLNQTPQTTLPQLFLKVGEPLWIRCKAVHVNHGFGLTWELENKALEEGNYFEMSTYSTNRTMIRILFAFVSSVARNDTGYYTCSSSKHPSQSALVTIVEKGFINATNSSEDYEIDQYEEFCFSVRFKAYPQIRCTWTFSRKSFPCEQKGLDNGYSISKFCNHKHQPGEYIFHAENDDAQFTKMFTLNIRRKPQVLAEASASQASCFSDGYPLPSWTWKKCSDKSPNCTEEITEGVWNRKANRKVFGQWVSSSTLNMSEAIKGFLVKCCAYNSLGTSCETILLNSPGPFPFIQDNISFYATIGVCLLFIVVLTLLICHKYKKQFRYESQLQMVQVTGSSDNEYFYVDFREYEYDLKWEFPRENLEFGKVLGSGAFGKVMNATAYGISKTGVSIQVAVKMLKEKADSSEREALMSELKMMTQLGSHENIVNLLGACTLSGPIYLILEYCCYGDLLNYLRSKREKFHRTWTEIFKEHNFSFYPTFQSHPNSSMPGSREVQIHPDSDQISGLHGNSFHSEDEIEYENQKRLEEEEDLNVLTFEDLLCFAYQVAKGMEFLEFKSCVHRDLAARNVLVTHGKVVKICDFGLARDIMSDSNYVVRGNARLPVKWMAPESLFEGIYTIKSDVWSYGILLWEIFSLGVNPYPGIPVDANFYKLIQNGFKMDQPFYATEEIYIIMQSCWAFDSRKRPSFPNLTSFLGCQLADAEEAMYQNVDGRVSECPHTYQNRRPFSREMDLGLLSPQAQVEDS
Description: The assay was carried out using KINOMEscan™ technology. The assay compounds were stored in 100% DMSO. The assay was carried out by means of 3-fold dilution and 11-point fitting. All compounds used for Kd determination were dispersed by ultrasound, then directly diluted and tested. All reactions were carried out in a 384-well polypropylene plate. Each portion has a final volume of 0.02 ml. The plate was incubated with shaking at room temperature for 1 hour, and then processed. The kinase concentration in the eluent was finally determined by qPCR method. Kd was obtained by fitting.

[1] = In vivo pharmacokinetic study in mice; set-up: species or system CD-1 male mice; conditions: male, CD-1, mouse, plasma
Description: CD-1 male mice aged 7 to 10 weeks were selected. The doses for intravenous and oral administration were 1 mg/kg and 2.5 mg/kg, respectively. The mice were fasted for at least 12 hours before the administration, and resumed feeding 4 hours after the administration. The mice had free access to water throughout the assay period.
On the day of the assay, the animals in the intravenous group were administrated the corresponding compound through a single injection in the tail vein at an administration volume of 5 mL/kg; the oral group were administrated the corresponding compound through a single intragastric gavage at an administration volume of 10 mL/kg. The animals were weighed before administration, and the administration volume was calculated based on the body weight. The time for collecting samples was: 0.083 (the injection group), 0.25, 0.5, 1, 2, 4, 8, 24 h. About 30 μL of whole blood was collected from the saphenous vein at each time point to prepare plasma for concentration determination by high-performance liquid chromatography-tandem mass spectrometry (LC-MS/MS). All animals were euthanized by CO2 anesthesia after collecting the PK samples at the last time point. The plasma concentrations were processed by non-compartmental model of WinNonlin™ Version 6.3 (Pharsight, Mountain View, Calif.) pharmacokinetic software, and the pharmacokinetic parameters were calculated by the linear logarithm trapezoidal method.

[2] = tested on: human biphenotypic B bone marrow mononuclear leukemia cell MV4-11 subcutaneous xenograft tumor; experiment: Inhibition of MV4-11 subcutaneous xenograft tumor in vivo; set-up: species or system nude mice
Description: In this assay, the anti-tumor effect of the compounds was evaluated using a nude mice model of subcutaneous xenograft tumor of human biphenotypic B bone marrow mononuclear leukemia cell MV4-11.
Human biphenotypic B bone marrow mononuclear leukemia cell MV4-11 was cultured in vitro in suspension with a RPMI1640 medium supplemented with 10% fetal bovine serum, 100 U/mL penicillin and 100 μg/mL streptomycin in a 5% CO2 cell incubator at 37° C. Routine passaging was performed twice a week. Cells in the logarithmic growth phase were collected, counted and then used for inoculation.
10×10^6 MV4-11 cells were inoculated subcutaneously on the back of the right neck of each mouse, wherein the inoculation volume was 0.2 mL, and the cell suspension was PBS plus matrigel (volume ratio 1:1). The assay of efficacy in vivo was performed on the 13th day after the cell inoculation, at which time the average tumor volume reached 181 mm^3. The mice were randomly divided into groups with 6 mice in each group, and administration to the mice started.
The diameter of the tumor was measured with vernier calipers twice a week. The formula for calculating the tumor volume is: V=0.5a×b^2, where a and b represent the long and short diameters of the tumor, respectively.
After 14 days of administration, the administration was stopped, and the rebound of the tumor was observed.

[3] = 5 mg/kg oral once a day for 14 days, then drug withdrawal

activity for FLT3 (ITD, F691L) higher than that of compound B (FLT3(ITD, F691L)): 3.6 times
AUC(0-t) ([1]; iv, injection 1 mg/kg): 604 nM·h
clearance ([1]; iv, injection 1 mg/kg): 2.91 L/h/kg
half-life ([1]; iv, injection 1 mg/kg): 2.4 h
Vd ([1]; iv, injection 1 mg/kg, read-out: Vdss): 8.63 L/kg
AUC(0-t) ([1]; oral administration 2.5 mg/kg): 598 nM·h
bioavailability ([1]; oral administration 2.5 mg/kg): 37.3%
half-life ([1]; oral administration 2.5 mg/kg): 4.41 h
SMILES: CCc1nc(C(N)=O)c(Nc2ccc(N3CCC4(CCN(C)CC4)CC3)c(C)c2)nc1NC1CCOCC1
% Inhibition rate on day 14 ([2]; 5 mg/kg oral once a day): 119%
Average tumor volume Day 14 ([2]; 5 mg/kg oral once a day): 32 cubic millimeter
Average tumor volume Day 25 [2, 3]: 234 cubic millimeter
Average tumor volume Day 35 [2, 3]: 849 cubic millimeter
Average tumor volume Day 0 ([2]; baseline at start of dosing, 5 mg/kg oral once a day group): 181 cubic millimeter
